Test results published in US20230151003A1, “COMPOUNDS AND METHODS OF USE” (Exelixis, Inc., priority 2020, published 2023).
Structures can show the parent of a compound that is named as a salt.

Key:
AXL = target: T1, AXL (Homo sapiens, UniProt P30530); assay: AXL autophosphorylation ELISA in A-172 cells; assay type: cell-based; conditions: Table 3 Cellular Activities, Gas6-stimulated, phospho-AXL ELISA
T1 construct: endogenous in cells; host or cells: A-172 glioblastoma cells (ATCC #CRL-1620)
T1 sequence (P30530 26-894): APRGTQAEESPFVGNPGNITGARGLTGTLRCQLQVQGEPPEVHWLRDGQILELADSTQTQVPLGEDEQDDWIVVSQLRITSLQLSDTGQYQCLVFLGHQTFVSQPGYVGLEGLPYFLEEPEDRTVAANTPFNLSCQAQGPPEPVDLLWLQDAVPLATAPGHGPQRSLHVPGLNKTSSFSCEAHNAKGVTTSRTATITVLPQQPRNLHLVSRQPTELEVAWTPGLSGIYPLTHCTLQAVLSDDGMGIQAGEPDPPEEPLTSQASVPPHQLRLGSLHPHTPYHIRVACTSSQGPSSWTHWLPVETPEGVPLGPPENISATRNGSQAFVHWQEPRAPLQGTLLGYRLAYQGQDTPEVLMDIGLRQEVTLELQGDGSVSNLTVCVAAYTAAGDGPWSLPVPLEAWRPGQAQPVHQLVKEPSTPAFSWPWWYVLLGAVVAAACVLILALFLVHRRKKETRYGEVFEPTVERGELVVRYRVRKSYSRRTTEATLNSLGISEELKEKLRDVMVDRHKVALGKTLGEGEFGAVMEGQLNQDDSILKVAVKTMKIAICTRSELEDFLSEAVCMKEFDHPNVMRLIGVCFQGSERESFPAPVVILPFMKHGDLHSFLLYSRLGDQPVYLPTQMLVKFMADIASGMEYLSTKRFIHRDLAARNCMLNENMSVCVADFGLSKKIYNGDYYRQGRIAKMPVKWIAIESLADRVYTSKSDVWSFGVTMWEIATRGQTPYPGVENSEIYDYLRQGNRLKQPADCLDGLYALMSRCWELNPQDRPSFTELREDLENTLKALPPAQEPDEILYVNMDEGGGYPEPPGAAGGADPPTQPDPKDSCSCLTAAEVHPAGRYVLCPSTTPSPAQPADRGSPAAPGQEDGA
Outline: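 Phospho-AXL in lysates measured by ELISA after Gas6 stimulation (1 μg/mL, 15 min) of A-172 cells pre-incubated 1 h with an 8-point compound dilution series in 0.3% DMSO after 24 h serum starvation. IC50 by 4-parameter logistic fit, with DMSO-treated and reference-inhibitor wells as 100% and 0% activity.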

KDR = KDR (Homo sapiens, UniProt P35968); assay: KDR autophosphorylation ELISA in HUVEC cells; assay type: cell-based; parameters: endogenous in cells; host or cells: HUVEC (Lonza #C2519A); conditions: Table 3 Cellular Activities, VEGF165-stimulated, phospho-KDR ELISA
Outline: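 Read-out: phospho-KDR ELISA on cell lysates, quantified against a phospho-KDR standard, normalised to VEGF-stimulated DMSO (100%) and unstimulated (0%) wells, IC50 by 4-parameter fit. Cells were 24 h serum-starved HUVEC given compound for 1 h, then 100 ng/mL VEGF165 for 5 min.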

Chain of KDR (P35968 20-1356): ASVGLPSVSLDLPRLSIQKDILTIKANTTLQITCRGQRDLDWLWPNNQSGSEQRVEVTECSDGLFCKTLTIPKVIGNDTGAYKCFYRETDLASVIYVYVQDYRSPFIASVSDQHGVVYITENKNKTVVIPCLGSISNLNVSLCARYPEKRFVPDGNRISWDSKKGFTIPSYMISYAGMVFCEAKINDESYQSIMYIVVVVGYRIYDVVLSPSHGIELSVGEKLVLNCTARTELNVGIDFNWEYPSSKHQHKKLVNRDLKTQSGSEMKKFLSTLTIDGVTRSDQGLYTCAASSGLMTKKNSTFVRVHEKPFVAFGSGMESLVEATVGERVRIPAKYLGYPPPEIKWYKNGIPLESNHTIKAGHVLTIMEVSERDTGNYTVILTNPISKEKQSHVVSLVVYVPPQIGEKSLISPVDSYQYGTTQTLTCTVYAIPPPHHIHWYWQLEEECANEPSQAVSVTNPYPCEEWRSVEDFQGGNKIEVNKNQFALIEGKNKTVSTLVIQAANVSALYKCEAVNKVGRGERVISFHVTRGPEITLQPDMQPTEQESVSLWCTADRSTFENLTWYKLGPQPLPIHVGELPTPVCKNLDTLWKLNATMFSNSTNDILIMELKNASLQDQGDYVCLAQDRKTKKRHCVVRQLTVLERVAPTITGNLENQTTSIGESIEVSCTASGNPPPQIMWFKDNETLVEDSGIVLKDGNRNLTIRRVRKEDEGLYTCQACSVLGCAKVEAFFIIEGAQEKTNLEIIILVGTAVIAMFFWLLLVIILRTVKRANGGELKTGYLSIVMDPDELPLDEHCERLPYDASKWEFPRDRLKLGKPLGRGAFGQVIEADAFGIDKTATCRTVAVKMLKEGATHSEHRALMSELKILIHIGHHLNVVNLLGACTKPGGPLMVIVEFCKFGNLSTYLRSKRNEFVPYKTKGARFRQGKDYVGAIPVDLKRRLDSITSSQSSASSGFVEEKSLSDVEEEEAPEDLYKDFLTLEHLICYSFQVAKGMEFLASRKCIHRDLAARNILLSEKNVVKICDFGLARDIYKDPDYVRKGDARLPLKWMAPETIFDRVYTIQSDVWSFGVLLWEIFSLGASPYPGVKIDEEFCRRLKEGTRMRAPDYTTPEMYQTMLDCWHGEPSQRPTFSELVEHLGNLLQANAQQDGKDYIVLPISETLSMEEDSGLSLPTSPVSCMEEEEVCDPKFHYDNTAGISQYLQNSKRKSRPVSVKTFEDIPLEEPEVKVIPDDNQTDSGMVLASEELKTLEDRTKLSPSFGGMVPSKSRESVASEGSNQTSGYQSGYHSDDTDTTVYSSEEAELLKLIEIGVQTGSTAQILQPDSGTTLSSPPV

| Structure (SMILES) | IC50 (AXL) [nM] | IC50 (KDR) [nM] |
| --- | --- | --- |
| COc1cc2nccc(Oc3ccc(NC(=O)c4c(C)n(C)c(C)c(-c5ccco5)c4=O)cc3)c2nc1OC [Compound 164, N-[4-[(6,7-Dimethoxy-1,5-naphthyridin-4-yl)oxy]phenyl]-5-(furan-2-yl)-1,2,6-trimethyl-4-oxopyridine-3-carboxamide] | ≤ 100 | 300 to 1000 |
| COc1nc2c(Oc3ccc(NC(=O)c4c(C)n(C)c(C)c(-c5ccco5)c4=O)cc3F)ccnc2cc1OCCC1CCC1 [Compound 337, N-[4-[[7-(2-Cyclobutylethoxy)-6-methoxy-1,5-naphthyridin-4-yl]oxy]-3-fluorophenyl]-5-(furan-2-yl)-1,2,6-trimethyl-4-oxopyridine-3-carboxamide] | ≤ 100 | ≤ 100 |
| COc1cc2nccc(Oc3ccc(NC(=O)c4cn(CCF)c(C)c(-c5ccco5)c4=O)cc3F)c2nc1OC [Compound 333, N-[4-[(6,7-Dimethoxy-1,5-naphthyridin-4-yl)oxy]-3-fluorophenyl]-1-(2-fluoroethyl)-5-(furan-2-yl)-6-methyl-4-oxopyridine-3-carboxamide] | ≤ 100 | 100 to 300 |
| COc1cc2nccc(Oc3ccc(NC(=O)c4c(C)nc(C)c(-c5ccc(C)s5)c4O)cc3F)c2nc1OC [Compound 111, N-[4-[(6,7-Dimethoxy-1,5-naphthyridin-4-yl)oxy]-3-fluoro-phenyl]-4-hydroxy-2,6-dimethyl-5-(5-methyl-2-thienyl)pyridine-3-carboxamide] | ≤ 100 | ≤ 100 |
| COCc1nc(C)c(-c2cccs2)c(O)c1C(=O)Nc1ccc(Oc2ccnc3cc(OC)c(OC)nc23)c(F)c1 [Compound 115, N-[4-[(6,7-Dimethoxy-1,5-naphthyridin-4-yl)oxy]-3-fluorophenyl]-4-hydroxy-2-(methoxymethyl)-6-methyl-5-thiophen-2-ylpyridine-3-carboxamide] | ≤ 100 | ≤ 100 |
| COc1cc2nccc(Oc3ccc(NC(=O)c4c(C)n(C)c(C)c(-c5cccs5)c4=O)cc3F)c2nc1OC [Compound 168, N-[4-[(6,7-Dimethoxy-1,5-naphthyridin-4-yl)oxy]-3-fluorophenyl]-1,2,6-trimethyl-4-oxo-5-thiophen-2-ylpyridine-3-carboxamide] | ≤ 100 | ≤ 100 |
| COc1cc2nccc(Oc3ccc(NC(=O)c4cnc(C)c(-c5ccc(C6CC6)o5)c4O)cc3F)c2nc1OC [Compound 155A, 5-(5-Cyclopropylfuran-2-yl)-N-[4-[(6,7-dimethoxy-1,5-naphthyridin-4-yl)oxy]-3-fluorophenyl]-4-hydroxy-6-methylpyridine-3-carboxamide hydrochloride] | ≤ 100 | ≤ 100 |
| COCc1nc(C)c(-c2ccccn2)c(O)c1C(=O)Nc1ccc(Oc2ccnc3cc(OC)c(OC)nc23)c(F)c1 [Compound 195, N-[4-[(6,7-Dimethoxy-1,5-naphthyridin-4-yl)oxy]-3-fluorophenyl]-4-hydroxy-2-(methoxymethyl)-6-methyl-5-pyridin-2-ylpyridine-3-carboxamide] | ≤ 100 | ≤ 100 |
| COc1cc2nccc(Oc3ccc(NC(=O)c4cnc(C)c(-c5ccc(C)s5)c4O)cc3F)c2nc1OC [Compound 94, N-[4-[(6,7-Dimethoxy-1,5-naphthyridin-4-yl)oxy]-3-fluoro-phenyl]-4-hydroxy-6-methyl-5-(5-methyl-2-thienyl) pyridine-3-carboxamide] | ≤ 100 | ≤ 100 |
| COc1cc2nccc(Oc3ccc(NC(=O)c4cnc(C)c(-c5cc(C(F)(F)F)nn5C)c4O)cc3F)c2nc1OC [Compound 105] | ≤ 100 | ≤ 100 |
| COc1cnc2c(Oc3ccc(NC(=O)c4cn(CCF)c(C)c(-c5ccsc5)c4=O)cc3F)ccnc2c1 [Compound 330, 1-(2-Fluoroethyl)-N-[3-fluoro-4-[(7-methoxy-1,5-naphthyridin-4-yl)oxy]phenyl]-6-methyl-4-oxo-5-thiophen-3-ylpyridine-3-carboxamide] | ≤ 100 | 300 to 1000 |
| COc1cnc2c(Oc3ccc(NC(=O)c4cnc(C)c(-c5ccc(C)o5)c4O)cc3F)ccnc2c1 [Compound 97, N-[3-Fluoro-4-[(7-methoxy-1,5-naphthyridin-4-yl)oxy]phenyl]-4-hydroxy-6-methyl-5-(5-methyl-2-furyl)pyridine-3-carboxamide] | ≤ 100 | ≤ 100 |
